This note sets out measurements from patent US8088757B2, “Betulinol derivatives as anti-cancer agents” (priority 2004, dated 2012).

For data set [1] the following is noted: 1.34 mg in 31 μL ethanol + 700 μL human serum.
Data set [2] is described as follows: Solubilization in PBS containing human γ-globulin, human albumin and ethanol. The note with it: 1 × 10^−3 mol/L. An excerpt:
Human γ-Globulin and human albumin are two major biocompatible components in human serum.

A further data set deals with 184B5/HER. Put plainly: In vitro cytotoxicity, Breast (1), 184B5/HER. It is filed as cell-based. As to conditions: 1 × 10^−4 M.
Data set [3] in a line: Solubility in DMSO diluted with culture medium (GC standard curve). The note with it: for State of solution: 0.5 mg/mL BA. As for the experimental part:
The residue was dissolved in chloroform analyzed on GC.
Ethyl ether was then evaporated. […] Concentration of drug in the above solutions was analyzed by GC and determined from the standard solubility curve.

The test system of the next data set is LNCaP xenografts. Also on record: species or system athymic mice. The note with it: mouse, in vivo. As for the experimental part:
All the animal studies were performed according to the guidelines and approval of the Institutional Animal Care and Use Committee and Research Animal Resource Center of Weill Medical College of Cornell University, New York. Twelve mice of 13 weeks of age were purchased from The National Cancer Institute (NCI) and were housed in a pathogen-free environment under controlled conditions of light and humidity and with free access to food and water. LNCaP cells were grown in RPMI-1640 with 10% FBS until 80-90% confluent. Cells were scraped into PBS and collected by centrifugation. The LNCAP cell pellets were suspended in Matrigel (Ref) at 2.5×10^7 cells/ml. Mice were injected subcutaneously (“s.c.”) with 200 μl (5×10^6 cells) of the cell suspension at one site on the flank. Visible tumor grew after 7-8 days following implantation and mice were divided into three groups of four mice each.
Mice received s.c. injection daily for ten days. […] Tumors were measured daily with calipers, and tumor volumes were calculated by the formula: π/6(l×w×h). Animals were also weighed daily and monitored for general health status and vital signs of possible toxicity due to treatment. At the end of the treatment period, the animals were sacrificed and tumors were excised, weighed and prepared for immunohistochemical and histological studies. […]

For a further data set, the system named is LNCaP. Put plainly: MTT cytotoxicity assay, LNCaP prostate cancer cells. It is filed as cell-based, human. The note with it: Homo sapiens, read-out: Growth Inhibition %; for inhibition at 25 µM: 2.5 × 10^−5 M; for inhibition at 2.5 µM: 2.5 × 10^−6 M; for inhibition at 0.25 µM: 2.5 × 10^−7 M. As for the experimental part: The human prostate cancer LNCaP, PC-3, and DU-145 cell lines, as well as human fibroblast cell line, were obtained from the American Type Culture Collection (“ATCC”) and maintained in RPMI-1640, F-12k, and MEM mediums, respectively, supplemented with 10% FBS. Cell lines were maintained at 37° C. under a humidified atmosphere and 5% CO2 for testing of the cytotoxicity of betulinol derivatives. The cytotoxicity assay was performed using MTT assay according to the instructions of ATCC protocol. Cells 1×10^5 in 0.1 ml/well were plated in 96-well culture plates (Costar) and incubated with a different dilution of betulinol derivatives for 24, 48, and 72 hours. Ten μl of 3-[4,5-dimethylthiazol-2-yl]-2,5 diphenyl tetrazolium bromide was added into each well at the end of each incubation period. The reaction product, formazan, was dissolved in the detergent, and the absorbance was read at 540 nm (Ref).
However, these compounds were not tested on prostate cancer LNCaP cell line by NCI. […] The anti-tumor activity of the compounds was determined at three doses and the total growth inhibition kill effect as pertinent of the control at 24, 48, and 72 hours as presented in Table 11.

Read-outs that look alike come from different tables or passages of the source.

Turning to `C=C(C)C1CCC2(C(=O)O)CC[C@]3(C)[C@H](CC[C@@H]4[C@@]5(C)CCC(=O)C(C)(C)[C@@H]5CC[C@]43C)C12` (stereo partly drawn) [Compound 4, Betulonic Acid], the Observation entry in data set [1] is recorded as “Clear Solution”; in data set [2] (ethanol 220 μL, γ-globulin 1.48 mL, albumin 0.49 mL) it was “Cloudy”; in data set [2] (ethanol 280 μL, γ-globulin 0 mL, albumin 2.50 mL), “Complete”; in data set [2] (ethanol 280 μL, γ-globulin (27 mg/mL in PBS) 2.50 mL, albumin (42 mg/mL in PBS) 0 mL) it was “Suspension”; in data set [2] (ethanol 308 μL, γ-globulin 0.69 mL, albumin 2.07 mL), “Almost Clear”; in data set [2] (ethanol 330 μL, γ-globulin 1.48 mL, albumin 1.48 mL), “Little Cloudy”. Further, in data set [2] (ethanol 352 μL, γ-globulin 0.32 mL, albumin 2.85 mL), the Observation result was “Clear”. Also, in the data set with 184B5/HER, the “Percent Killed” value is listed as “Toxic”. Further, the State of solution entry in data set [3] (3% DMSO in culture medium) was “Suspension”; in data set [3] (9% DMSO in culture medium), “Suspension”; in data set [3] (14% DMSO in culture medium) it was “Cloudy”; in data set [3] (20% DMSO in culture medium), “clear solution”; in data set [3] (20% DMSO in culture medium, listed as BA), “Clear”. For the same compound, the “amount of betulonic acid dissolved” value in data set [3] (out of 3 mg, 1% DMSO in culture medium containing 10% FBS, supernatant after centrifugation) came out at 0.4 mg. Further, the “general health and vital signs during treatment” value in the data set with LNCaP xenografts was “no adverse effects on vital signs”. Moreover, the inhibition (in general, the percentage by which the read-out fell short of the control) at 25 µM came out at 11.4% with LNCaP (24 hours) and 32.6% with LNCaP (48 hours). Further, the inhibition at 2.5 µM came out at 14.7% in the data set on LNCaP (24 hours) and 43% in the data set on LNCaP (48 hours). For the same compound, the inhibition at 0.25 µM with LNCaP (24 hours) was 3.01%; in the data set with LNCaP (48 hours), 28.3%.
